The target of experiment [1] is T5L-TRPM2 (Homo sapiens, UniProt O94759, G984L/INS985E/Y985D). As to the kind of experiment: Excised inside-out patch-clamp recordings, ADPR-dependent channel activation. Format: cell-based. The method, then:
Oocytes isolated from anaesthetized Xenopus laevis were digested with collagenase, injected with 10–70 ng cRNA, and stored at 18°C. Recordings were done 2–3 days after injection.
The tip of the patch pipette was filled to ~1 cm height with 140 mM Na-gluconate, 2 mM Mg-gluconate2, 10 mM HEPES (pH 7.4 with NaOH); free [Ca^2+] ~4 μM. The pipette electrode was placed into a 140-mM NaCl-based solution carefully layered on top. Bath solution contained 140 mM Na-gluconate, 2 mM Mg-gluconate2, 10 mM HEPES (pH 7.1 with NaOH), and either 1 mM EGTA (to obtain 'zero' (~8 nM) Ca^2+) or 1 mM Ca-gluconate2 (to obtain 125 μM free Ca^2+) ([Csanády and Törocsik, 2009]). Na-ADPR was used at final concentrations of 0.32, 1, 3.2, 10, 32, 100, or 1000 μM, and the Na^+ salt of ε-ADPR at 100 μM. Macroscopic TRPM2 currents were recorded at 25°C at a membrane potential of −20 mV. Currents were amplified, filtered at 2 kHz (Axopatch 200B), digitized at 10 kHz (Digidata 1322A), and stored to disk (Pclamp9, Molecular Devices, Sunnyvale, CA, USA).
Dose dependence of ADPR-induced current activation, expressed as the ratio of mean macroscopic currents observed in the presence of various test [ADPR] (I) and 32 (or 100) μM ADPR (Imax) in the same patch, was fitted to the Hill equation (I/Imax = [ADPR]^n/(K^n+[ADPR]^n). Dose dependence of ADPR-activation in the presence of 100 μM ε-ADPR was expressed as the ratio of the currents observed in the presence of various test [ADPR] + 100 μM ε-ADPR (I) and 100 μM ADPR alone (Imax) in the same patch, and was fitted to the Hill equation substituting K' = K(1+[ε-ADPR]/KI) instead of K (K and n fixed to their control values). Macroscopic current decay time courses following removal of ADPR or Ca^2+ were fitted by single exponentials using the method of least squares.
A general note: Patch clamp records ionic current or voltage across a cell membrane.

Experiment [2] concerns the target T1, Chi4S (Homo sapiens, UniProt O94759).
T1 construct: its C-terminal cytosolic NUDT9-homology (NUDT9H) domain; made in house; host or cells: E. coli BL21 (DE3), pJ411 plasmid
Nature of the experiment: Ligand binding assay based on quenching of ε-ADPR fluorescence. The settings on record: 100 μM Chi4S, 20 mM Tris pH 8.5/100 mM NaCl, 16 mM MgCl2; assuming negligible fluorescence of bound analog; read-out: Kd (upper estimate). As to the method: The ligand binding ability of purified Chi4S protein was assessed using fluorescence quenching of the ADPR analogue 1, N^6-ethenoadenosine-5’-O-diphosphoribose (ε-ADPR - BIOLOG Life Science Institute, Bremen, Germany). A 350-μl volume of 100 μM Chi4S protein in 20 mM Tris (pH 8.5)/100 mM NaCl buffer, supplemented with 16 mM MgCl2, was titrated by increasing concentrations of ε-ADPR. Fluorescence emission scans (350–700 nm) were recorded at a fixed excitation wavelength of 310 nm (Hitachi F-7000, Hitachi High Technologies, Maidenhead, UK). Fluorescence emission for ε-ADPR peaks at ~410 nm. Protein-free buffer or 100 μM bovine serum albumin (BSA; instead of Chi4S) were used as controls. Data are shown as mean ± S.D. of two independent experiments.
Dose dependence of fluorescence (Em = 420 nm) of free ε-ADPR (in buffer) was fitted by an empirical non-linear function to produce a smooth calibration curve, used to obtain upper estimates of free [ε-ADPR] in the presence of 100 μM Chi4S protein and various total [ε-ADPR], assuming negligible fluorescence for the bound, relative to the free, form of the analog. The plot of free vs. total [ε-ADPR] was fitted by the simple binding equation [ε-ADPR]free=0.5([ε-ADPR]total−[P]total−Kd+([ε-ADPR]total−[P]total−Kd)^2+4Kd[ε-ADPR]total),
where [P]total is the total concentration of Chi4S protein (100 μM), and Kd is a free parameter. […]

Where “and” joins values, the source holds several entries; their conditions need not be identical. Identical values can stand only once.

T1 sequence (O94759 with tags, fused parts or gaps limits assumed): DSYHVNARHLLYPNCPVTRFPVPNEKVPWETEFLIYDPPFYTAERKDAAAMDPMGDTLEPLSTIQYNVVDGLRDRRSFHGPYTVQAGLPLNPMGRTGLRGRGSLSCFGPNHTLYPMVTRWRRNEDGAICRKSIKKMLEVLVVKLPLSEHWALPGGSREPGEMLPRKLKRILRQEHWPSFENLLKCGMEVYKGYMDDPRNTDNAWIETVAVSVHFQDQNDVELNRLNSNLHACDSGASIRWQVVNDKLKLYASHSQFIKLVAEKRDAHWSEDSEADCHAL
Chain of T5L-TRPM2 (O94759 whole entry, stated change not applied): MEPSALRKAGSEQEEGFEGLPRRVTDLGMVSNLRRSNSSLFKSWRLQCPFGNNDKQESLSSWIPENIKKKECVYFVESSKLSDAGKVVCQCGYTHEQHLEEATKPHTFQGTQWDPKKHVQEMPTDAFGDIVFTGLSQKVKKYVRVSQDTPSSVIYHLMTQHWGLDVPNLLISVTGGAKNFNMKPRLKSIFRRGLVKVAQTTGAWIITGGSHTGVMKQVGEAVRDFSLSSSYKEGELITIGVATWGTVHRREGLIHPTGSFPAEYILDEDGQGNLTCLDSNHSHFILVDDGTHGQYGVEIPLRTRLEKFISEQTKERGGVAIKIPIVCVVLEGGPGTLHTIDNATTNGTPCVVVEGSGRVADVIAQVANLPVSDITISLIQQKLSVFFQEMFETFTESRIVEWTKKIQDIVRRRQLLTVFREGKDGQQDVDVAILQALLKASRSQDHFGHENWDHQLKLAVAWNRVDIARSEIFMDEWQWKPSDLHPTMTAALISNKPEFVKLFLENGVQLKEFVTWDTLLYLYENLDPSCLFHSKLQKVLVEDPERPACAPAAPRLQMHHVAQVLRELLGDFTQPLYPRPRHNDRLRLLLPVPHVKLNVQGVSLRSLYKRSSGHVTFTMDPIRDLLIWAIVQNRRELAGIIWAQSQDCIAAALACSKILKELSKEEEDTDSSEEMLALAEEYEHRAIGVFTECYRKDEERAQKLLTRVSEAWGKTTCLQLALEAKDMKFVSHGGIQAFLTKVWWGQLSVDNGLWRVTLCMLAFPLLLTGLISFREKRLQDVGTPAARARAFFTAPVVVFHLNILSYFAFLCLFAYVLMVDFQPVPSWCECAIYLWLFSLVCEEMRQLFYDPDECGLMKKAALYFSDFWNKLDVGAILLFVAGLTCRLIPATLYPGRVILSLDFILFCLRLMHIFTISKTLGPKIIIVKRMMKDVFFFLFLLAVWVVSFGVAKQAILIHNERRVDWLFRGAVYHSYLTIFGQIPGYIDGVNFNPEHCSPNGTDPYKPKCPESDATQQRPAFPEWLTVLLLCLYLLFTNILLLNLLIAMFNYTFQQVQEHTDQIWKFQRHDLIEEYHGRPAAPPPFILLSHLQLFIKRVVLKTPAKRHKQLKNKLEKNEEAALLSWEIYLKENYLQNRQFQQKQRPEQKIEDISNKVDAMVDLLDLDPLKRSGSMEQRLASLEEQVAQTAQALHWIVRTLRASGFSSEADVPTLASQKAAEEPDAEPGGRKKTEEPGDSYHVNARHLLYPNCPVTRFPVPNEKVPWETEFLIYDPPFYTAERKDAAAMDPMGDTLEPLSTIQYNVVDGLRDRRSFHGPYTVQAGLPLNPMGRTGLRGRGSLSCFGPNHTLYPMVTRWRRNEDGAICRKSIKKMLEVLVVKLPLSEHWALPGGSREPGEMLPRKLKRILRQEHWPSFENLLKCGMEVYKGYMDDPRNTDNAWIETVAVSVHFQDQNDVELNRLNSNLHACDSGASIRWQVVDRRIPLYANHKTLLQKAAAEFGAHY

By Ki is commonly meant the dissociation constant of the complex between target and ligand, obtained from inhibition or displacement. Usually Kd stands for the constant that tells how readily two partners part at equilibrium. Take `O=P(O)(OC[C@H]1OC(O)[C@H](O)[C@@H]1O)OP(=O)(O)OC[C@H]1O[C@@H](n2cnc3c2ncn2ccnc32)[C@H](O)[C@@H]1O` (stereo partly drawn) [ε-ADPR, 1, N^6-ethenoadenosine-5’-O-diphosphoribose]: the “effect on ADPR-evoked TRPM2 currents” value in experiment [1] (inside-out patch, 1 or 100 μM ADPR) is reported as “suppressed ADPR-evoked TRPM2 currents in a dose-dependent manner”. Besides, in experiment [1] (right-shift of ADPR dose response in the presence of 100 μM ε-ADPR, competitive fit, read-out: KI (Kε-ADPR) for binding to native NUDT9H), the Ki came to 112 ± 24 µM. Besides, the Kd in experiment [2] was 111 µM and ≤ 111 µM.

Source of the values: publication PMC4974056, “The proposed channel-enzyme transient receptor potential melastatin 2 does not possess ADP ribose hydrolase activity” (eLife, 2016).
